Earlier results in patent US20130136780A1, “CROSSLINKED POLYSACCHARIDE GEL COMPOSITIONS FOR MEDICAL AND COSMETIC APPLICATIONS” (ALLERGAN, INC., priority 2007, published 2013).

Conditions: osteoarthritis patient, intra-articular injection of 40 mg; Selvi et al. 2004

Compound: CC(C)(C)CC(=O)OCC(=O)[C@@]12OC(C)(C)O[C@@H]1C[C@H]1[C@@H]3CCC4=CC(=O)C=C[C@]4(C)[C@@]3(F)[C@@H](O)C[C@@]12C [triamcinolone hexacetonide]
- adverse outcome after intra-articular injection (case report): developed acute arthritis induced by the injected triamcinolone crystals
